Experimental data reported in patent US20250114361A1, “PYRAZOLOPYRIMIDINE COMPOUND AND PHARMACEUTICAL USE THEREOF” (Japan Tobacco Inc., priority 2022, published 2025).

Legend:
[1] = test system: mouse strain expressing CAPS-related NLRP3 mutations; settings: in vivo; cited from earlier work
[2] = molecular target: NLRP3 inflammasome (Homo sapiens (Human), UniProt Q96P20); experiment: NLRP3 inflammasome inhibitory activity: inhibition of IL-1β production in THP1-Null cells (PMA, LPS, Nigericin); format: cell-based; settings: Nigericin 7.5 μmol/L
NLRP3 inflammasome, sequence (Q96P20 whole entry): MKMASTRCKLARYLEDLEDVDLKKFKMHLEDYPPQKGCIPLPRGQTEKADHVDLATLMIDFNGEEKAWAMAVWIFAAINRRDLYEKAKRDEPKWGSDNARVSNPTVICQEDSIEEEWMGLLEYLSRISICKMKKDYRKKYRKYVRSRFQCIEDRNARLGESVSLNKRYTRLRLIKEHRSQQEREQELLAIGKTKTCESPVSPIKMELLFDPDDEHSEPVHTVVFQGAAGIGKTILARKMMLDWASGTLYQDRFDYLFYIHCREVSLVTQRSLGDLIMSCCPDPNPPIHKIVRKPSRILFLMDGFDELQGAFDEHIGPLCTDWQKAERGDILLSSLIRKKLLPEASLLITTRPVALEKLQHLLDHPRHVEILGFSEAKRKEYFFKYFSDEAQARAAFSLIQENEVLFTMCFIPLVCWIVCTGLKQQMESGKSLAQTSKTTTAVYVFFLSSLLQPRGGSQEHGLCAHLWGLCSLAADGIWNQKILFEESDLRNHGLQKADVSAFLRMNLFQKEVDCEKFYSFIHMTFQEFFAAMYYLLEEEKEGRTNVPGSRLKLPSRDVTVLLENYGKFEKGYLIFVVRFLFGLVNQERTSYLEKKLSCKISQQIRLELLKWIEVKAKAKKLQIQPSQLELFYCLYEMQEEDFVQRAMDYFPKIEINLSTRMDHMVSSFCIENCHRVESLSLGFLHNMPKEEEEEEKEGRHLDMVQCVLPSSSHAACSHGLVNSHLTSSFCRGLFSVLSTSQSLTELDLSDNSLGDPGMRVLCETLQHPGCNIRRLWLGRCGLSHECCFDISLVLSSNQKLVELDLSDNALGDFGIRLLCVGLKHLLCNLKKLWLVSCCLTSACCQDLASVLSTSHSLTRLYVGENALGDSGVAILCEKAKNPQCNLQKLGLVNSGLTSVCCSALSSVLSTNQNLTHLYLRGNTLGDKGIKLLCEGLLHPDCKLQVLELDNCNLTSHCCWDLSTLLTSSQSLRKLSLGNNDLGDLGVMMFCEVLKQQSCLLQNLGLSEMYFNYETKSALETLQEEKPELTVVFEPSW
Procedure: The NLRP3 inflammasome inhibitory activity of test compounds were evaluated on the basis of the inhibitory activity of the IL-1β production in THP1-Null cells (Product Number: thp-null, InvivoGen). Cells were maintained for culture in RPMI-1640 media containing 10% (v/v) fetal bovine serum, 25 mmol/L HEPES, 100 U/mL penicillin, 100 μg/mL streptomycin, 100 μg/mL normocin, and 200 μg/mL hygromycin B (set at 37° C., 5% CO2/95% air).
Cells were suspended with media for assay containing 0.5 μmol/L PMA (RPMI-1640 media containing 10% (v/v) fetal bovine serum, 100 U/mL penicillin, and 100 μg/mL streptomycin), and the suspended cells were seeded on Corning (registered trademark) 384-well Flat Clear Bottom Black Polystyrene TC-treated Microplates (25,000 cells/25 μL/well), followed by incubation (set at 37° C., 5% CO2/95% air) overnight. The supernatant of the culture was removed, and thereto was added media for assay (25 μL/well) containing 1 μg/mL Lipopolysaccharides (Product Number: L2654, Sigma-Aldrich (registered trademark)). Then, the culture was further incubated for 3 hours (set at 37° C., 5% CO2/95% air). The supernatant of the culture was removed. Then, a vehicle solution prepared from Opti-MEM (trademark) medium (Product Number: 31985-070, Invitrogen) was added to blank-setting wells and control-setting wells (20 μL/well), followed by incubation for 15 minutes (set at 37° C., 5% CO2/95% air). A solution containing a test compound (20 μL/well) was added to test compound-setting wells. Further, Opti-MEM (trademark) medium containing Nigericin (Product Number: N7143, Sigma-Aldrich (registered trademark)) was added to the control-setting wells and test compound-setting wells (5 μL/well), followed by incubation for 1.5 hours (set at 37° C., 5% CO2/95% air). The final concentration of Nigericin was adjusted to be 7.5 μmol/L. 5 μL/well of Opti-MEM (trademark) medium was added to the blank-setting wells. The supernatant of the culture was cryonically stored (set at −20° C.) until measurement of IL-1β.
The amount of IL-1β in the culture supernatant was quantitated with AlphaLISA (registered trademark) Human IL-1β Detection Kit (Product Number: AL220C, Perkin Elmer). Fluorescence intensity was measured with a microplate reader EnSpier (Model number: 2300-00J, Perkin Elmer) or EnSight (Model number: HH34000000, Perkin Elmer) according to procedure manuals attached thereto. Inhibition rates of the test compound-setting wells were calculated on the basis of 100% for the blank-setting wells and 0% for the control-setting wells. IC50 values (i.e., 50% inhibitory concentrations) of the test compounds were calculated by logistic regression analysis.

[3] = test system: MOG35-55EAE model mice; settings: administration after the onset; cited from earlier work
[4] = test system: mouse model of deoxycorticosterone acetate-salt; settings: in vivo; cited from earlier work
[5] = test system: APP/PS1 mice; settings: mouse, in vivo; cited from earlier work
[6] = test system: α-synuclein PFF injected mice; settings: mouse, in vivo; cited from earlier work
[7] = test system: R6/2 mice; settings: mouse, in vivo; cited from earlier work
[8] = test system: microglia; settings: cited from earlier work
[9] = test system: TBI model mice; settings: mouse, in vivo; cited from earlier work
[10] = test system: middle cerebral artery occlusion (MCAO) mice; settings: MCAO model; cited from earlier work
[11] = test system: intracerebral bleeding model rats; settings: cited from earlier work
[12] = test system: pilocarpine-induced epilepsy model mice; settings: mouse, in vivo; cited from earlier work
[13] = test system: pathological models of depressive illness; settings: in vivo; cited from earlier work
[14] = test system: maternal immune activation (MIA) model; settings: administration to the mother; cited from earlier work
[15] = test system: mice with spinal cord injury; settings: mouse, in vivo; cited from earlier work
[16] = test system: intestinal perforation model; settings: in vivo; cited from earlier work
[17] = test system: mice infected with SARS-CoV-2; settings: mouse, in vivo; cited from earlier work
[18] = test system: STZ-induced diabetic mice; settings: mouse, in vivo; cited from earlier work
[19] = test system: intra-articular urate-injected arthritis model; settings: in vivo; cited from earlier work

For `O=C(O)c1ccc(/C=C2/SC(=S)N(Cc3cccc(C(F)(F)F)c3)C2=O)cc1` [CY-09], the “systemic lethal inflammation and survival” value [1] is listed as “suppressed systemic lethal inflammation and improved the survival”.
`Cc1cc(C2CC2)cc(C)c1-n1cc2c(=O)[nH]c(-c3cc4n(n3)CCC4)nc2n1` [Example 57] gave an IC50 [2] of 9 nM.
`Cc1cc(C(C)(F)F)cc(C)c1-n1cc2c(=O)[nH]c(-c3cscn3)nc2n1` [Example 58] gave an IC50 [2] of 3 nM.
Compound `Cn1ccc(-c2nc3nn(-c4cc5c(cc4Cl)CCC5)cc3c(=O)[nH]2)n1` [Example 59, 2-(6-chloro-2,3-dihydro-1H-inden-5-yl)-6-(1-methyl-1H-pyrazol-3-yl)-2,5-dihydro-4H-pyrazolo[3,4-d]pyrimidin-4-one] has an IC50 [2] of 34 nM.
Work on `Cc1cc(C(C)(F)F)cc(C)c1-n1cc2c(=O)[nH]c(-c3nc[nH]n3)nc2n1` [Example 60] yielded an IC50 [2] of 390 nM.
For `COc1ccc(Cl)cc1C(=O)NCCc1ccc(S(=O)(=O)NO)cc1` [JC-171], the “impairment of motor function” value [3] is given as “inhibited the impairment of motor function”.
For `CC(C)(O)c1coc(S(=O)(=O)NC(=O)Nc2c3c(cc4c2CCC4)CCC3)c1` [MCC950], the hypertension [4] is given as “suppress hypertension”, the “NLRP3 activation in microglia and cognitive dysfunction” value [5] is given as “suppresses NLRP3 activation in microglia and improves cognitive dysfunction” and the “NLRP3 activation and neuronal death of dopamine neurons in the substantia nigra” value [6] is given as “inhibits NLRP3 activation in the substantia nigra and suppresses neuronal death of dopamine neurons in the substantia nigra”. For the same compound, the “NLRP3 inflammasome activation, neuronal death in the striatum, symptom progression” value [7] was “inhibits NLRP3 inflammasome activation in the striatum of R6/2 mice, suppresses neuronal death in the striatum, and suppresses symptom progression”, the “NLRP3 activation in microglia and IL-1β production” value [8] was “inhibits SOD1G93A and TDP-43 protein-induced NLRP3 activation in microglia and decreases IL-1β production” and the “IL-1β production and neurological symptoms after brain injury” value [9] was “inhibits IL-1β production in TBI model mice and suppresses the development of neurological symptoms after brain injury”. The neuroprotective effects [10] was “showed neuroprotective effects”, the neuroprotective effects [11] was “showed neuroprotective effects” and the “apoptosis of hippocampal neurons” value [12] was “suppress apoptosis of hippocampal neurons”. For the same compound, the depressive symptoms [13] was “improves depressive symptoms”, the “ASD symptoms in offspring” value [14] was “suppresses ASD symptoms in offspring” and the “NLRP3 activation and IL-1β expression in the spinal cord, recovery of motor function” value [15] was “NLRP3 activation and IL-1β expression in the spinal cord are suppressed, and the recovery of motor function is promoted”. The “NLRP3 inflammasome activation and memory impairment” value [16] was “NLRP3 inflammasome activation is suppressed and the memory impairment is improved”, the “NLRP3 inflammasome activation in the lung and dysregulated immune response” value [17] was “inhibits NLRP3 inflammasome activation in the lung and suppresses the dysregulated immune response” and the increased vascular permeability [18] was “alleviated increased vascular permeability”.
In the case of `CS(=O)(=O)CCC#N` [OLT1177], the arthritis [19] is given as “suppressed arthritis”.
